This passage reports binary diffusion coefficient results from the NIST ThermoML archive (doi:10.1016/j.fluid.2007.10.013).

SMILES strings stand for the structures.

This data set can be described thus: xn = mol fraction of the nth substance listed. The settings on record: 101 kPa, Liquid, Taylor dispersion method, x1 = 0.

On to `NC(CO)C(=O)O` (centres undefined) [(.+-.)-serine] + O, for which the binary diffusion coefficient reads like this: (293.2 K) 7.72e-10 m2/s; (298.2 K) 8.8e-10 m2/s; (303.2 K) 9.91e-10 m2/s; (313.2 K) 1.26e-09 m2/s; (323.2 K) 1.55e-09 m2/s; (333.2 K) 1.88e-09 m2/s.

With `NC(CCO)C(=O)O` (stereo not drawn) [DL-2-amino-4-hydroxybutanoic acid] + O, the binary diffusion coefficient runs as follows: (293.2 K) 7.26e-10 m2/s; (298.2 K) 8.39e-10 m2/s; (303.2 K) 9.39e-10 m2/s; (313.2 K) 1.19e-09 m2/s; (323.2 K) 1.47e-09 m2/s; (333.2 K) 1.78e-09 m2/s.

`C[C@H](O)[C@H](N)C(=O)O` [DL-allothreonine] + O: the binary diffusion coefficient runs as follows: (293.2 K) 6.97e-10 m2/s; (298.2 K) 7.96e-10 m2/s; (303.2 K) 9.06e-10 m2/s; (313.2 K) 1.14e-09 m2/s; (323.2 K) 1.42e-09 m2/s; (333.2 K) 1.72e-09 m2/s.

On to `C[C@@H](O)[C@H](N)C(=O)O` [DL-threonine] + O, for which the binary diffusion coefficient is, setting by setting: (293.2 K) 6.91e-09 m2/s; (298.2 K) 7.99e-09 m2/s; (303.2 K) 9.04e-09 m2/s; (313.2 K) 1.14e-08 m2/s; (323.2 K) 1.43e-08 m2/s; (333.2 K) 1.72e-08 m2/s.
